According to patent US8969249B2, “Synthesis and biological activity of bicyclic ABA analogs” (National Research Council of Canada, priority 2004, dated 2015):

Experiments:
[1] = test system: suspension-cultured cells of maize (Black Mexican Sweet); experiment: growth inhibition assay using suspension-cultured corn cells; assay type: cell-based; settings: for inhibition of growth of suspension-cultured maize cells: dose-dependent over concentration range 0.1-10.0 μM
Excerpt: In yet another embodiment, a process for inhibiting plant cell growth using the bicyclic ABA and analogs of the present invention is described. The ability of bicyclic ABA and analogs of the present invention to inhibit plant cell growth may be assayed with a growth inhibition assay. In one assay, suspension-cultured corn cells are used in a well characterized experimental system that has been useful for comparing the biological activity and metabolism of ABA and ABA analogs (6).
The growth inhibition assay using suspension-cultured corn cells is a well characterized experimental system that has been very useful for comparing the biological activity and metabolism of ABA and ABA analogs (6).
Maize cell cultures were treated as described by Balsevich et. al. (6). The cultures were incubated on a rotary shaker for 4 days, and the cells were separated from the medium by vacuum filtration and weighed immediately. The effect of ABA and bicyclic ABA on cell growth was determined at various concentrations (0-10 μM) by calculating the percentage increase in fresh weight [(final weight×100/initial weight)−100)]. Measurements were performed in triplicate and average values were normalized to a control (untreated) value of 100%.

[2] = test system: Arabidopsis thaliana (Columbia wild type) seeds; experiment: seed germination inhibition assay; assay type: in vivo; settings: for germination index: lowest concentration of 0.33 μM
Method: (§1) In yet an additional embodiment, bicyclic ABA and analogs of the present invention may be used in a process for inhibiting seed germination. In one embodiment, bicyclic ABA is used in a germination assay of Arabidopsis thaliana (Columbia wild type) seeds over a wide range of concentrations (0.33-33 μM). Similar treatments were performed for ABA [1] (both enantiomers) to allow for a direct comparison between ABA and bicyclic ABA (both enantiomers). The results are expressed in terms of germination indices, which summarize the rate and extent of germination over the time of the experiment at a given concentration. […] At the lowest concentration of 0.33 μM, the germination index for (+)-ABA (1) was almost 0.4, compared with less than 0.1 in the case of (+) bicyclic ABA [8].
as §1, with “Bicyclic” for “In yet an additional embodiment, bicyclic”, “produced using the process” for “and analogs”, “was also studied” for “may be used in a process for inhibiting seed germination. In one embodiment, bicyclic ABA is used”, “μM) (FIG. 7).” for “μM).”, “[1]” for “(1)”, “[8]. […] It was only active at concentrations of ≧1 μM.” for “[8].”
Arabidopsis thaliana (Columbia wild type) seed germination inhibition studies were performed as described by Cutler et. al. (23). The treatments were performed in duplicate with 50 seeds per plate and incubated at 24° C. with 16 hr days and 8 hr nights for the duration of the test (7 days).

| Compound | inhibition of growth of suspension-cultured maize cells [1] | germination index ([2]; 7-day test) | concentrations at which active/effective in inhibiting germination ([2]; tested 0.33-33 μM, 7-day test) [µM] | inhibitory activity (cell growth) relative to (+)-ABA ([1]; BMS maize suspension cells, 4 days, FIG. 6) [fold] | germination inhibition compared with comparator (in words) ([2]; (+)-[8] versus (+) ABA, (−)-[8] versus (+)-[8]) | inhibition of seed germination (in words) ([2]; all concentrations (0.33-33 μM), 7-day test period) |
| --- | --- | --- | --- | --- | --- | --- |
| CC1=CC(=O)CC(C)(C)C1(O)/C=C/C(C)=C\C(=O)O (single isomer, unassigned; (+)) [(+)-ABA, abscisic acid, reference compound] | inhibited the growth | ~0.4 |  |  |  |  |
| abscisic acid [(−) enantiomer of ABA [1], reference compound] |  |  | ≥ 3.33 |  |  |  |
| CC(=C/C(=O)O)/C=C/[C@@]1(O)c2ccccc2C(=O)CC1(C)C [(+)-[8], (2Z,4E)-5-((1S)-1-Hydroxy-2,2-dimethyl-4-oxo-1,2,3,4-tetrahydro-naphthalen-1-yl)-3-methyl-penta-2,4-dienoic acid] | inhibited the growth | less than 0.1 |  | ~10 | more effective germination inhibitor than (+) ABA | highly effective |
